Results: article PMC11062899, “De novo development of small cyclic peptides that are orally bioavailable” (Nature Chemical Biology, 2023)
Where “and” joins values, the source holds several entries; their conditions need not be identical. Equal entries are not always repeated. Where two headings read alike, the source gives them in different places. Values belong to the compound of their own block, whether it stands above or below them. Square brackets hold non-standard residues; d marks the D form. Peptide text beside a SMILES is read from it. NMeY = CN[C@@H](Cc1ccc(O)cc1)C(=O)O; NMeL = CN[C@@H](CC(C)C)C(=O)O; dNMeL = CN[C@H](CC(C)C)C(=O)O

Key:
in vivo = details: male, Wistar Han, rat
Procedure: Male Wistar Han rats (250–350 g) obtained at an age of 9–10 weeks from Charles River Laboratories were used for the studies and kept in housing groups of two or three. Experiments were performed at the age of 10–11 weeks. Intravenous (i.v.) administrations were carried out using tail vein injections. Peptides were dissolved in pure DMSO and diluted with 5% Cremophor EL in water (5% DMSO final) at a concentration of 0.5 mg ml^−1. I.v. administration was carried out at a dose of 1 mg kg^−1 body weight via the left lateral tail vein of rats (n = 3) using an Insyte-W 24 G × 0.75 in. (0.7 mm × 19 mm) temporary peripheral venous catheter (BD Biosciences, 381312). Before injecting the peptide solution, a correct placement of the catheter was confirmed by an apparent reflux of blood through the catheter. Orally (p.o.) administrated peptides were dissolved in DMSO and diluted with 10% Cremophor EL in water (5% DMSO final) at a concentration of 1 mg ml^−1 and administrated by oral gavage to rats (n = 3) at a dose of 10 mg kg^−1. Rats used for oral administration were fasted overnight for 14 h and provided access to food again 2 h after administration, whereas access to water was not restricted throughout the whole experimental procedure. Volumes of 100 μl of blood samples were collected via the right lateral tail vein at different timepoints after i.v. or p.o. administration into heparinized tubes (Sarstedt, 20.1282); the samples were stored on ice for up to 4 h; and plasma was obtained by centrifugation at 2,000g for 5 min at 4 °C. A volume of 40 μl of plasma was added to 120 μl of an acetonitrile:water (9:1) solution containing an internal standard (5 μg ml^−1). Samples were vortexed for 10 s and sonicated for 10 min, and precipitated plasma proteins were pelleted by centrifugation at 16,000g for 15 min at 4 °C. Volumes of 120 μl of supernatant were transferred to a new tube, and solvent was evaporated in a rotary vacuum concentrator (RVC 2–33 CDplus IR, Christ) for 2 h at 40 °C. Dried residues were dissolved in 20 μl of a water:acetonitrile (7:3) (v/v) solution, centrifuged at 14,000g for 5 min and analyzed by LC–MS. Peptides were quantified by extracting ion chromatograms corresponding to their respective mass, integrating the area under the peptide peak and calculating the concentrations by normalization to a calibration curve. Calibration curves were prepared by analyzing spiked samples of blood or plasma with known concentrations of peptide. The absolute oral bioavailability was calculated using equation (6).6 F=AUCp.o./AUCi.v.×Dosei.v./Dosep.o.×100 where AUCp.o. and AUCi.v. are calculated from a plasma concentration versus time curve using the linear trapezoidal rule, and Dosei.v. and Dosep.o. are the intravenously or orally administrated amount of peptide in mg kg^−1.

porcine pancreatin = assay: Peptide stability in simulated intestinal fluid (SIF); type: in vitro ADME; set-up: remaining at 8 h: dose or concentration left out as unconfirmed
Summary of the method: (§1)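 Peptide from a 1 mM DMSO stock was added to fluid pre-warmed at 37 °C. SGF was pH 1.2 NaCl with porcine pepsin (0.32 g per 100 ml), and SIF was pH 6.8 potassium phosphate with porcine pancreatin (1 g per 100 ml). Supernatant peptide was quantified by LC–MS, with residual expressed as T1/T0.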

[1] = Metabolic stability in rat liver microsomes (RLMs); details: for half-life at 10 μM / microsomal CLint at 10 μM / microsomal CLint / half-life: rat; for microsomal CLint / half-life: microsomes
porcine pepsin = target: T1, porcine pepsin (Sus scrofa, UniProt P00791); assay: Peptide stability in simulated gastric fluid (SGF); type: in vitro ADME; set-up: remaining at 8 h: dose or concentration left out as unconfirmed; details: for remaining at 8 h: 37 °C, pH 1.2, read-out: Proteolytic stability: SGF (8 h) % remaining
T1 construct: 0.32 g of porcine pepsin (Sigma-Aldrich, P7125) was dissolved under gentle agitation; purchased Sigma-Aldrich P7125
T1 sequence (P00791 60-385): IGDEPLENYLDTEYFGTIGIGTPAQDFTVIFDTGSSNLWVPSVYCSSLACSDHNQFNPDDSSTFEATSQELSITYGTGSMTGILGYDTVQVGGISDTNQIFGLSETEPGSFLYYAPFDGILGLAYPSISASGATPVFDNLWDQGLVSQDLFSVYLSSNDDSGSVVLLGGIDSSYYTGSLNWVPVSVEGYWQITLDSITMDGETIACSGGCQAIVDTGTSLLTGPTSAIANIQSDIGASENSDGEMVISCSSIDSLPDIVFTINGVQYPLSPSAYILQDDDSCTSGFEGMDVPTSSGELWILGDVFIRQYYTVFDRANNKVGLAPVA
Summary of the method: as §1

[2] = set-up: method as in PMID 19696042; details: cited from earlier work
[3] = cited from earlier work
human α-thrombin = human α-thrombin (Homo sapiens, UniProt P00734); assay: Protease inhibition, Ki for human α-thrombin (fluorogenic substrate Z-Gly-Gly-Arg-AMC); type: biochemical; details: replicates R1-R3
Summary of the method: (§2)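 Ki derived through Cheng–Prusoff from IC50s (four-parameter logistic fit) against activity of peptide-free controls. Product fluorescence was read every 3 min over 30 min at 25 °C, substrate Z-Gly-Gly-Arg-AMC at 50 μM. Enzyme was 2 nM human or 3 nM rat α-thrombin, pH 7.4 buffer.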

[4] = Passive artificial membrane permeability (PAMPA)
[5] = Peptide stability in simulated intestinal fluid (SIF); type: in vitro ADME, porcine; set-up: remaining at 8 h: dose or concentration left out as unconfirmed; details: simulated gi fluid; 8 h, 37 °C, pH 6.8; read-out: Proteolytic stability: SIF (8 h) % remaining
Summary of the method: as §1

rat α-thrombin = target: T2, rat α-thrombin (Rattus norvegicus, UniProt P18292); assay: Protease inhibition, Ki for rat α-thrombin (fluorogenic substrate Z-Gly-Gly-Arg-AMC); type: biochemical; details: replicates R1-R3
T2 construct: rat α-thrombin (Molecular Innovations) were used at final concentrations of 2 nM and 3 nM; purchased Molecular Innovations
Summary of the method: as §2

[6] = rat liver microsomes, pH 7.4, Metabolic stability: Half life T1/2 (min), RLMs, mean and SD, three measurements
[7] = rat liver microsomes, pH 7.4, Metabolic stability: RLM CL (ul/min/mg), RLMs, mean and SD, three measurements
[8] = peptide 1.33E+02 uM, slope of proteolytic substrate cleavage over time
[9] = after 8 h vs 0 h (TIC), average of R1-R3
[10] = after 8 h vs 0 h (TIC), single replicates R1-R3

bioavailability (in vivo): 27 ± 4%
half-life (in vivo; iv): 110 min
remaining at 8 h (porcine pancreatin; pig, simulated intestinal fluid (SIF) with porcine pancreatin, 8 h, 37 °C, pH 6.8, read-out: Proteolytic stability: SIF (8 h) % remaining): 98 ± 6%
half-life at 10 μM [1, 6]: 193 ± 42 min
microsomal CLint at 10 μM [1, 7]: 7.6 ± 1.9 µL/min/mg
remaining at 8 h (porcine pepsin; pig, simulated gastric fluid (SGF) with porcine pepsin): 93 ± 12%
SMILES: CC(C)C[C@@H]1NC(=O)[C@H](Cc2ccc(O)cc2)N(C)C(=O)[C@H]2CCCN2C(=O)[C@H](CC(C)C)NC(=O)[C@H](CC(C)C)N(C)C(=O)[C@@H](CC(C)C)N(C)C1=O [1NMe3, reference compound] (cyclo(L[dNMeL][NMeL]L[dP][NMeY]))

SMILES: CCCCCCOC(=O)NC(=N)c1ccc(NCc2nc3cc(C(=O)N(CCC(=O)OCC)c4ccccn4)ccc3n2C)cc1 [dabigatran etexilate]
oral availability [2]: 6.5%

Half Life ([1]; rat liver microsomes, individual replicates R1-R3): 12.36 min
RLM CL ([1]; rat liver microsomes, individual replicates R1-R3, incubation volume 400 ul, protein 0.5 mg/ml): 112.14 ul/min/mg protein
half-life at 10 μM ([1]; rat liver microsomes, pH 7.4, Half Life Mean, mean of R1-R3): 13.4 min
half-life at 10 μM ([1]; rat liver microsomes, pH 7.4, Half Life, individual replicates R1-R3): 14.9 min
half-life at 10 μM [1, 6]: 13.4 ± 1.1 min
microsomal CLint at 10 μM [1, 7]: 104 ± 8 µL/min/mg
microsomal CLint at 10 μM ([1]; rat liver microsomes, pH 7.4, RLM CL Mean, mean of R1-R3): 104 µL/min/mg
microsomal CLint at 10 μM ([1]; rat liver microsomes, pH 7.4, RLM CL, individual replicates R1-R3, incubation volume 400 ul, protein 0.5 mg/ml): 93 µL/min/mg
SMILES: COc1ccc([C@@H]2Sc3ccccc3N(CCN(C)C)C(=O)[C@@H]2OC(C)=O)cc1 [Diltiazem, diltiazem, reference compound]
metabolic clearance in humans [3]: around 15 ml min^−1 kg^−1

Human alpha thrombin inhibition, slope normalized to DMSO (human α-thrombin; peptide 1.02E-03 uM): 91.9 and 90.1 and 93.2
Human alpha thrombin inhibition, slope normalized to DMSO (human α-thrombin; peptide 1.04E+00 uM): 79.8 and 81.1 and 79.3
Human alpha thrombin inhibition, slope normalized to DMSO (human α-thrombin; peptide 1.27E-04 uM): 96.4 and 91.3 and 88.2
Human alpha thrombin inhibition, slope normalized to DMSO (human α-thrombin; peptide 1.30E-01 uM): 96.0 and 91.0 and 92.0
Human alpha thrombin inhibition, slope normalized to DMSO (human α-thrombin; [8]): 8.4 and 8.5 and -2.6
Human alpha thrombin inhibition, slope normalized to DMSO (human α-thrombin; peptide 1.63E-02 uM): 97.2 and 84.3 and 96.8
Human alpha thrombin inhibition, slope normalized to DMSO (human α-thrombin; peptide 1.67E+01 uM): 30.4 and 33.6 and 42.3
Human alpha thrombin inhibition, slope normalized to DMSO (human α-thrombin; peptide 2.03E-03 uM): 97.8 and 93.0 and 96.6
Human alpha thrombin inhibition, slope normalized to DMSO (human α-thrombin; peptide 2.08E+00 uM): 73.0 and 70.9 and 73.9
Human alpha thrombin inhibition, slope normalized to DMSO (human α-thrombin; peptide 2.54E-04 uM): 99.0 and 94.8 and 97.2
Human alpha thrombin inhibition, slope normalized to DMSO (human α-thrombin; peptide 2.60E-01 uM): 91.4 and 88.4 and 89.4
Human alpha thrombin inhibition, slope normalized to DMSO (human α-thrombin; peptide 3.18E-05 uM): 91.8 and 117.4 and 98.4
Human alpha thrombin inhibition, slope normalized to DMSO (human α-thrombin; peptide 3.26E-02 uM): 94.8 and 91.6 and 96.2
Human alpha thrombin inhibition, slope normalized to DMSO (human α-thrombin; peptide 3.33E+01 uM): 18.0 and 18.8 and 20.4
Human alpha thrombin inhibition, slope normalized to DMSO (human α-thrombin; peptide 4.07E-03 uM): 93.4 and 91.5 and 94.8
Human alpha thrombin inhibition, slope normalized to DMSO (human α-thrombin; peptide 4.17E+00 uM): 59.5 and 58.3 and 61.9
Human alpha thrombin inhibition, slope normalized to DMSO (human α-thrombin; peptide 5.09E-04 uM): 97.5 and 92.8 and 99.8
Human alpha thrombin inhibition, slope normalized to DMSO (human α-thrombin; peptide 5.21E-01 uM): 87.6 and 85.1 and 86.8
Human alpha thrombin inhibition, slope normalized to DMSO (human α-thrombin; peptide 6.36E-05 uM): 100.5 and 90.1 and 98.6
Human alpha thrombin inhibition, slope normalized to DMSO (human α-thrombin; peptide 6.51E-02 uM): 92.5 and 91.3 and 93.7
Human alpha thrombin inhibition, slope normalized to DMSO (human α-thrombin; peptide 6.67E+01 uM): 11.3 and 18.5 and 12.0
Human alpha thrombin inhibition, slope normalized to DMSO (human α-thrombin; peptide 8.14E-03 uM): 94.9 and 92.1 and 95.9
Human alpha thrombin inhibition, slope normalized to DMSO (human α-thrombin; peptide 8.33E+00 uM): 50.4 and 48.8 and 50.8
PAMPA permeability: % permeability ([4]; 50 μM, 12–18 h, acceptor concentration relative to equilibrium): 63 ± 5%
Papp at 50 μM ([4]; PAMPA, pH 7.4): 6.46 ×10⁻⁶ cm/s
Permeability% Average ([4]; PAMPA, average of R1-R3): 62.6%
Permeability% R1 ([4]; PAMPA, replicate R1, TIC of top well sample relative to sample at theoretical equilibrium): 59.23%
Permeability% R3 ([4]; PAMPA, replicate R3, TIC of top well sample relative to sample at theoretical equilibrium): 59.76%
SIF stability, Residual peptide Average (porcine pancreatin; [9]): 91.31
SIF stability, Residual peptide (porcine pancreatin; [10]): 90.99 and 82.41 and 100.52
remaining at 8 h [5]: 91 ± 9%
microsomal CLint ([1]; CL (ul/min/mg protein) R1, RLM CL, replicate R1): 73.8 µL/min/mg
microsomal CLint ([1]; CL (ul/min/mg protein) R2, RLM CL, replicate R2): 70.2 µL/min/mg
microsomal CLint ([1]; CL (ul/min/mg protein) R3, RLM CL, replicate R3): 77.1 µL/min/mg
half-life ([1]; Half Life (min) R1, RLM metabolic stability, replicate R1, 0-60 min): 18.8 min
half-life ([1]; Half Life (min) R2, RLM metabolic stability, replicate R2, 0-60 min): 19.7 min
half-life ([1]; Half Life (min) R3, RLM metabolic stability, replicate R3, 0-60 min): 18 min
half-life ([1]; Metabolic stability: Half life T1/2 (min), RLMs, mean and SD, three measurements): 18.8 ± 0.7 min
microsomal CLint ([1]; Metabolic stability: RLM CL (ul/min/mg), RLMs, mean and SD, three measurements): 74 ± 3 µL/min/mg
Rat alpha thrombin inhibition, slope normalized to DMSO (rat α-thrombin; [8]): 2.4 and 2.8 and 19.0
Rat alpha thrombin inhibition, slope normalized to DMSO (rat α-thrombin; peptide 1.67E+01 uM): 12.7 and 12.2 and 32.4
Rat alpha thrombin inhibition, slope normalized to DMSO (rat α-thrombin; peptide 2.08E+00 uM): 50.5 and 50.4 and 69.3
Rat alpha thrombin inhibition, slope normalized to DMSO (rat α-thrombin; peptide 3.33E+01 uM): 7.4 and 6.9 and 24.6
Rat alpha thrombin inhibition, slope normalized to DMSO (rat α-thrombin; peptide 4.17E+00 uM): 35.4 and 36.2 and 53.3
Rat alpha thrombin inhibition, slope normalized to DMSO (rat α-thrombin; peptide 6.67E+01 uM): 5.7 and 4.4 and 22.7
Rat alpha thrombin inhibition, slope normalized to DMSO (rat α-thrombin; peptide 8.33E+00 uM): 23.3 and 24.4 and 38.9
SGF stability, Residual peptide Average (porcine pepsin; [9]): 98.66
SGF stability, Residual peptide (porcine pepsin; [10]): 100.45 and 94.90 and 100.63
remaining at 8 h (porcine pepsin; simulated gi fluid): 99 ± 3%
SMILES: O=C1NCCSCc2cccc(n2)CSCCC(=O)N2CCC[C@H]2C(=O)N2CCN(C(=O)c3ccc(Cl)s3)CC12 (some centres unmarked) [compound 23]
